The values that follow come from patent US7320867B2, “Linker compound, ligand, and producing method thereof” (Japan Science and Technology Agency, priority 2000, dated 2008).

Experiment [1] has as its target bovine serum albumin (BSA) (Bos taurus, UniProt P02769). Put plainly: SPR examination of nonspecific (hydrophobic) interaction between ligand-introduced chip and protein. Type of experiment: binding. The settings on record: BSA 1 mg/mL in PBS pH 7.4, 60 μL at 15 μL/min, 25° C.
The target in experiment [2] is recombinant von Willebrand's Factor (rvWF) (Homo sapiens, UniProt P04275). Put plainly: SPR measurement of binding between ligand-introduced chip and rvWF. As to conditions: for Kd: read-out: Dissociation constant KD. The text has this: That is, by the procedure described below, a ligand (Compound 14) was immobilized on a surface of a glass substrate with a thin gold film deposited thereon, and the binding behavior of Compound 14 with a recombinant von Willebrand's Factor (hereinafter abbreviated to rvWF), which is a heparin binding protein, was observed.
First, a sensor chip (manufactured by Japan Laser Electronics Co., Ltd.), prepared by depositing a gold film of 50 nm thick on a glass substrate of 13 mm×20 mm×0.7 mm, was placed in a UV ozone washer (product name: NL-UV253, Japan Laser Electronics Co., Ltd.), and was exposed to ultraviolet rays for 20 minutes so as to wash the gold surface of the sensor chip with ozone. Subsequently, the sensor chip was mounted on a Teflon™ cell holder in a cell. The cell, to which 50 μL of a methanol solution containing 0.1 mM of Compound 14 was added, was sealed and then gently shaken overnight at room temperature with a Bio Dancer (product name, New Brunswick Scientific Co., Ltd.). Thereafter, the cell was washed six times with 100 μL of methanol, and the sensor chip was removed from the Teflon™ cell holder. The removed sensor chip was then immersed in a Petri dish full of methanol and washed twice by gently shaking the Petri dish. Thereafter, the sensor chip was washed with water and methanol in this order in the same manner as described above, so as to obtain a ligand-introduced chip (ligand carrier). The ligand carrier was air-dried and then mounted on a sensor chip cartridge (glass prism) of a surface plasmon resonance apparatus SPR670 (product name, Japan Laser Electronics Co., Ltd.).
Except that an rvWF solution was used instead of the BSA solution (5-2) injected onto the ligand-introduced chip (obtained in 5-1), the same procedure as in (5-2) was carried out to inject the rvWF solution onto the surface of the ligand-introduced chip. It is to be noted that rvWF was dissolved in the running buffer so as to prepare an rvWF solution with a concentration of 125 nM to 1600 nM.
The rvWF solution was injected onto the surface of the ligand-introduced chip at varying concentrations, and a response (RU; response unit) based on bonding between Compound 14 and rvWF was measured as a function of injection time (sec) of the rvWF solution using the surface plasmon resonance apparatus. […]
In addition, a dissociation constant (KD), a binding rate constant (ka), and a dissociation rate constant (kd) were calculated, using software attached to the surface plasmon resonance apparatus (SPR670), based on a result (FIG. 1) yielded by observing the binding behavior of Compound 14 (ligand) with rvWF.
Then, except that the Compound 25 was used instead of the Compound 14, the procedure in (5-1) of Example 5 was followed to obtain a ligand-introduced chip. […] Thereafter, according the procedure in (5-3) of Example 5, the rvWF solution was injected onto the surface of the ligand-introduced chip, and changes in resonance angle as a function of injection time of the rvWF solution was measured using the surface plasmon resonance apparatus, so as to examine the binding behavior of Compound 25 with rvWF.
In addition, a dissociation constant (KD), a binding rate constant (ka), and a dissociation rate constant (kd) were calculated, based on FIG. 2, according to the procedure in (5-3) of Example 5.
(In SPR one partner is held on a chip, and binding of the other changes the refractive index at the surface.)

Setting [3] is: ligand immobilized on gold sensor chip, rvWF 125 nM to 1600 nM in PBS pH 7.4, 25° C., calculated with SPR670 software.

Sequence of recombinant von Willebrand's Factor (rvWF) (P04275 23-2813): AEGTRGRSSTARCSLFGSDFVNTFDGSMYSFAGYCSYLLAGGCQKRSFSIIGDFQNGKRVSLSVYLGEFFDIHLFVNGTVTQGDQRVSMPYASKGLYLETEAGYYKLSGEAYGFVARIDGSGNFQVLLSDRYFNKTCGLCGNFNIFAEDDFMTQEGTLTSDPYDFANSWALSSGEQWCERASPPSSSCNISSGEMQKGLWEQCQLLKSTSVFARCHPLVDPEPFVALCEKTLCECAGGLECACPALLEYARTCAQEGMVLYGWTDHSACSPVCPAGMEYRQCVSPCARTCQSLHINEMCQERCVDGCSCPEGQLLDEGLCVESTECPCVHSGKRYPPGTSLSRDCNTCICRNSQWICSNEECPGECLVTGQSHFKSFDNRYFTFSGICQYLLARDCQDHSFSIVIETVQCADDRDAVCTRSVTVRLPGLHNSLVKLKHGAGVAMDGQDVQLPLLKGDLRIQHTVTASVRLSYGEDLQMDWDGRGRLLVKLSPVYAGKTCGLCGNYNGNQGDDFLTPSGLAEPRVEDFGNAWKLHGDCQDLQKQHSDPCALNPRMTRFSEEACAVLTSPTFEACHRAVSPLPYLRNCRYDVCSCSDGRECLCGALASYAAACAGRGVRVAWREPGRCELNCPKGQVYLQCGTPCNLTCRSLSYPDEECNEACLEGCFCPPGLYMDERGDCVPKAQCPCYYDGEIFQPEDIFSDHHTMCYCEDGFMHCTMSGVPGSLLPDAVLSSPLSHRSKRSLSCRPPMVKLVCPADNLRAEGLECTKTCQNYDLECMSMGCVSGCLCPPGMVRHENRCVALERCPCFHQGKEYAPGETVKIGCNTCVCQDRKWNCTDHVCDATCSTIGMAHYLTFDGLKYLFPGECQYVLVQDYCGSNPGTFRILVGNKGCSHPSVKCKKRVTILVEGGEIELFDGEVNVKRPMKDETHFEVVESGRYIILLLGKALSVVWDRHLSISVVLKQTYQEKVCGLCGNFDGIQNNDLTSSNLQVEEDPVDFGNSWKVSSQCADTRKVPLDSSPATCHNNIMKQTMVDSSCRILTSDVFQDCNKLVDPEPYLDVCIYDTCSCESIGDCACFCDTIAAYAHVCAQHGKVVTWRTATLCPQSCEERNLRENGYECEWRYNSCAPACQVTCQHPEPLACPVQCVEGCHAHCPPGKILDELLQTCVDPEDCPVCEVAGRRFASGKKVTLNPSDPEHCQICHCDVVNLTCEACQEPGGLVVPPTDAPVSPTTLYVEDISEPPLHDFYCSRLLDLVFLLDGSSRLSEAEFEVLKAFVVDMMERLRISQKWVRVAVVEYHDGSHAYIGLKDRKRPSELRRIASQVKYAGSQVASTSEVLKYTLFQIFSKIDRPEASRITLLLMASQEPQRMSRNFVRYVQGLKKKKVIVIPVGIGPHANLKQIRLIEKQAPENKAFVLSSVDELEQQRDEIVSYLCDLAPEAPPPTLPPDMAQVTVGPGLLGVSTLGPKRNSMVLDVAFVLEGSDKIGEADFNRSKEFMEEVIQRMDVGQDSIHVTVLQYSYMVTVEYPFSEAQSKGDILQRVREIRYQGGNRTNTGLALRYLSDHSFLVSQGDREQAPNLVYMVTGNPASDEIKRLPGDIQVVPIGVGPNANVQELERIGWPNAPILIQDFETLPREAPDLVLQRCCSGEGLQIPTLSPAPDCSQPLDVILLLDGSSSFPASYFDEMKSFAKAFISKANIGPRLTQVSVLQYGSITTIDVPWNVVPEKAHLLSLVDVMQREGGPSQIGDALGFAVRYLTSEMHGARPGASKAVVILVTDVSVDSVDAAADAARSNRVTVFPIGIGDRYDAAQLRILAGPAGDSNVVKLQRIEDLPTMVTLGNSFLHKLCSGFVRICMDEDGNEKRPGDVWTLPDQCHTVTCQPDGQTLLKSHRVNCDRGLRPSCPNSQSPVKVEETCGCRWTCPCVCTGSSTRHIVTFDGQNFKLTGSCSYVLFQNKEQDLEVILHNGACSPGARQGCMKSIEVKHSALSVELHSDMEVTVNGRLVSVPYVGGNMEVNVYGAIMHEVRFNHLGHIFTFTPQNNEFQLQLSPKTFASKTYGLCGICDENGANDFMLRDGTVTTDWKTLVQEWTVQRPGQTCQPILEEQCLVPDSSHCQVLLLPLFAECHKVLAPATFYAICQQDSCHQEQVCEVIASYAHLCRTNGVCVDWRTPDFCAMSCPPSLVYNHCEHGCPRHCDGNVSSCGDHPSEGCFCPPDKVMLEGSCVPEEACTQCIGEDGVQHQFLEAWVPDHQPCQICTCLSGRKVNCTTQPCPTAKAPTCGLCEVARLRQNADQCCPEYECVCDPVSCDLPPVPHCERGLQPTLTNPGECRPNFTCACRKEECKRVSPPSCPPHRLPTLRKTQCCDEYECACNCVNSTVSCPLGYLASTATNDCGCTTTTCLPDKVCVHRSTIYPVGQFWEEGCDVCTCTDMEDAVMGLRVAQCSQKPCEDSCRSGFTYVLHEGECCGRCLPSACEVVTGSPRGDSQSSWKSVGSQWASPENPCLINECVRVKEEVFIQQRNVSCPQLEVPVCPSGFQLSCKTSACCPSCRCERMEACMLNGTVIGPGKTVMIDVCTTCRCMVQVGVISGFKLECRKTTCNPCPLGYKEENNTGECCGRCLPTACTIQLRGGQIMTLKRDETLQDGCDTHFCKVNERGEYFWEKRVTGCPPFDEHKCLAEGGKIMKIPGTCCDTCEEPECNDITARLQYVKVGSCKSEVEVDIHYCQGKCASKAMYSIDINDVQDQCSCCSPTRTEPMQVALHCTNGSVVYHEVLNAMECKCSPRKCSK
Sequence of bovine serum albumin (BSA) (P02769 25-607): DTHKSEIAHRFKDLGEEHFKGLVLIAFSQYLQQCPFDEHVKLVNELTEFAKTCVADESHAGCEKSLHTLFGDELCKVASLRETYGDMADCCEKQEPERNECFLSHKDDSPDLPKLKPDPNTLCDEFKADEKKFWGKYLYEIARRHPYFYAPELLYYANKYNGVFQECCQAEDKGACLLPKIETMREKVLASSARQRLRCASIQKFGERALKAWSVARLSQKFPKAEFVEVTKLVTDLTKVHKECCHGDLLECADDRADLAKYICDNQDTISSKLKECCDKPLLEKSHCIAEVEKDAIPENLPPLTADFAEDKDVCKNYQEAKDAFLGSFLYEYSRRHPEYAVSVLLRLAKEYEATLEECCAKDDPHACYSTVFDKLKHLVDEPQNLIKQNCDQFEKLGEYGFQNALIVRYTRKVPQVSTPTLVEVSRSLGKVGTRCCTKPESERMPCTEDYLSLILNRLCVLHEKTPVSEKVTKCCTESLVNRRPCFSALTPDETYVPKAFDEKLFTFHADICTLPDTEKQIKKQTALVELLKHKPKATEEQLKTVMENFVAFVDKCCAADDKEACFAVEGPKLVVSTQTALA

The Kd is the constant that tells how readily two partners part at equilibrium. Consider `COC1C(COS(=O)(=O)O)OC(OC2C(C(=O)O)OC(OCC(O)C(O)C(O)C(O)CNc3cccc(NC(=O)CCC(CCC(=O)Nc4cccc(NCC(O)C(O)C(O)C(O)COC5OC(C(=O)O)C(OC6OC(COS(=O)(=O)O)C(OC)C(O)C6NS(=O)(=O)O)C(O)C5OS(=O)(=O)O)c4)(CCC(=O)Nc4cccc(NCC(O)C(O)C(O)C(O)COC5OC(C(=O)O)C(OC6OC(COS(=O)(=O)O)C(OC)C(O)C6NS(=O)(=O)O)C(O)C5OS(=O)(=O)O)c4)NC(=O)CNC(=O)CCCCC4CCSS4)c3)C(OS(=O)(=O)O)C2O)C(NS(=O)(=O)O)C1O` (stereo not shown) [Compound 14], for which the “Nonspecific interaction based on hydrophobic interaction (resonant angle change)” value in experiment [1] is recorded as “almost no resonant angle change”. In experiment [2] (comparison from Table 1), the “Affinity for rvWF compared with ligand-introduced chip using Compound 25” value is listed as “higher affinity for rvWF”. In addition, the Kd in experiment [2] (setting [3]) was 1200 nM.

Take `COC1C(COS(=O)(=O)O)OC(OC2C(C(=O)O)OC(OCC(O)C(O)C(O)C(O)CNc3cccc(NC(=O)CCCCC4CCSS4)c3)C(OS(=O)(=O)O)C2O)C(NS(=O)(=O)O)C1O` (stereo not shown) [Compound 25]: the “Nonspecific interaction based on hydrophobic interaction (resonant angle change)” value in experiment [1] is on record as “no nonspecific interaction”. For the same compound, the kon in experiment [2] (ligand immobilized on gold sensor chip, rvWF 125 nM to 1600 nM in PBS pH 7.4, 25° C., calculated with SPR670 software, read-out: Binding rate constant ka) is 8380 M⁻¹ s⁻¹. The Kd in experiment [2] (setting [3]) was 2600 nM. Further, the koff in experiment [2] (ligand immobilized on gold sensor chip, rvWF 125 nM to 1600 nM in PBS pH 7.4, 25° C., calculated with SPR670 software, read-out: Dissociation rate constant kd) is 0.0219 s⁻¹.
